Experimental data taken from the supplement of paper PMC10307832.

Key:
Assay in all cases: relative viability (nuclei count vs DMSO), 5 days (fraction); higher = more cells survive
[1] = compound: CC1=CC=C(C=C1)C(=O)CN2C3=C(CCCC3)SC2=N [Pifithrin_alpha] + CS(=O)(=O)N1CCN(Cc2cc3nc(-c4cccc5[nH]ncc45)nc(N4CCOCC4)c3s2)CC1 [Pictilisib] (partner 1 µM)
How it was run: (§1)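 Nuclei were stained with Hoechst during a one-step fixation (final 0.05% Triton X-100, 1% formaldehyde, 1 ug/ml Hoechst) carried out 5 days after dosing, then counted on 4× images. The cells, lung cancer lines in 1536-well plates, had been dosed by pin tool the day after seeding with one drug alone or a fixed anchor-drug dose plus five library-drug doses (not always all listed) in √10 steps. Relative viability is the nuclei count in treated wells divided by that in vehicle wells, and each value is the median of duplicate plates.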

Axitinib + Lapatinib = compound: CNC(=O)c1ccccc1Sc1ccc2c(/C=C/c3ccccn3)n[nH]c2c1 [Axitinib] + CS(=O)(=O)CCNCc1ccc(-c2ccc3ncnc(Nc4ccc(OCc5cccc(F)c5)c(Cl)c4)c3c2)o1 [Lapatinib] (partner 2 µM)
How it was run: as §1

[2] = compound: CC1=CC=C(C=C1)C(=O)CN2C3=C(CCCC3)SC2=N [Pifithrin_alpha] + CC(=O)c1c(C)c2cnc(Nc3ccc(N4CCNCC4)cn3)nc2n(C2CCCC2)c1=O [Palbociclib] (partner 0.5 µM)
How it was run: as §1

Axitinib + Olaparib = compound: CNC(=O)c1ccccc1Sc1ccc2c(/C=C/c3ccccn3)n[nH]c2c1 [Axitinib] + O=C(c1cc(Cc2n[nH]c(=O)c3ccccc23)ccc1F)N1CCN(C(=O)C2CC2)CC1 [Olaparib] (partner 8 µM)
How it was run: as §1

Row | Cell Line | relative viability ([1]; first compound 1 µM) | relative viability ([1]; first compound 3.162 µM) | relative viability ([1]; first compound 10 µM) | relative viability ([1]; first compound 31.62 µM) | relative viability ([1]; first compound 100 µM) | relative viability (Axitinib + Lapatinib; first compound 0.005 µM) | relative viability (Axitinib + Lapatinib; first compound 0.01581 µM) | relative viability (Axitinib + Lapatinib; first compound 0.05 µM) | relative viability (Axitinib + Lapatinib; first compound 0.1581 µM) | relative viability (Axitinib + Lapatinib; first compound 0.5 µM) | relative viability ([2]; first compound 1 µM) | relative viability ([2]; first compound 3.162 µM) | relative viability ([2]; first compound 10 µM) | relative viability ([2]; first compound 31.62 µM) | relative viability ([2]; first compound 100 µM) | relative viability (Axitinib + Olaparib; first compound 0.005 µM) | relative viability (Axitinib + Olaparib; first compound 0.05 µM) | relative viability (Axitinib + Olaparib; first compound 0.1581 µM) | relative viability (Axitinib + Olaparib; first compound 0.5 µM) | relative viability (Axitinib + Olaparib; first compound 0.01581 µM)
1 | NCI-H1563 | 0.53 | 0.688 | 0.61 | 0.65 | 0.705 | 0.956 | 0.85 | 0.931 | 0.863 | 0.694 |  |  |  |  |  |  |  |  |  | 
2 | SW 900 |  |  |  |  |  |  |  |  |  |  | 0.58 | 0.513 | 0.453 | 0.388 | 0.526 | 1.02 | 1.07 | 0.892 | 0.927 | 
3 | A549 | 0.703 | 0.586 | 0.435 | 0.434 | 0.342 | 0.896 | 1 | 0.997 | 0.902 | 1.01 |  |  |  |  |  | 0.471 | 0.373 | 0.327 | 0.412 | 0.36
4 | NCI-H2342 |  |  |  |  |  |  |  |  |  |  | 0.516 | 0.494 | 0.493 | 0.53 | 0.501 | 0.51 | 0.421 | 0.528 | 0.44 | 0.464
5 | NCI-H1299 | 0.797 | 0.827 | 0.919 | 0.452 | 0.762 | 0.956 | 0.993 | 0.96 | 0.97 | 1.02 |  |  |  |  |  | 0.983 | 0.976 | 0.983 | 0.975 | 0.944
6 | NCI-H522 |  |  |  |  |  |  |  |  |  |  | 0.988 | 0.854 | 0.834 | 0.893 | 0.947 | 0.61 | 0.641 | 0.562 | 0.748 | 0.639
7 | ChaGo-K-1 | 0.431 | 0.653 | 0.631 | 0.473 | 0.559 |  |  |  |  |  | 0.87 | 0.955 | 0.901 | 0.509 | 0.911 | 0.473 | 0.412 | 0.441 | 0.438 | 0.445
